Laboratory results reported in patent US20250154121A1, “CYCLIC(ALKYL)(AMINO)ALKOXY-SUBSTITUTED ARYL-PYRONE COMPOUND AND USE THEREOF” (priority 2022, published 2025).
Like-named read-outs stand apart in the source and are kept apart here.

Experiments:
human coronavirus OC43 = format: in vivo; conditions: Table 6 (Example 17); 90 mg/kg/d gavage for 4 days
[1] = system: Human Coronavirus 229E (HCoV-229E); assay: animal or person; format: in vivo
[2] = system: Influenza A (H1N1) virus PR8 strain; assay: Mouse pneumonia model infected with influenza A (H1N1) virus PR8 strain (lung index); format: in vivo, ICR mice
Description: (§1) ICR mice were taken and randomly divided by weight class: normal control group, model control group, oseltamivir control group, compound 4, compound F4, compound F5, compound 5, and compound 7 according to their weight class, and each drug was given in two dosage groups (10 mice in each group). Except for the normal control group, mice were slightly anesthetized with ether and infected with 15 LD50 H1N1 influenza virus liquid (FM1/PR8 strain) by nasal drops (30 μl per each animal). The administration was started on the day of infection at 0.2 ml/10 g by gavage each time once a day for 4 days, and the normal control and model control groups were gavaged with distilled water under the same conditions. The mice were weighed and dissected on Day 5, and lung was weighed to calculate lung index and lung index inhibition. The results were statistically processed using t-test for comparison between groups.
(§2) ICR mice were taken and randomly divided into 9 groups according to the body weight: a normal control group, model control group, oseltamivir control group, and two dosage groups of Compound 9, Compound 12 and Compound 2, 10 mice in each group. Except the normal control group, mice were slightly anesthetized with ether and infected with 15 LD50 H1N1/PR8 influenza virus liquid by nasal drops at 30 μl per mouse. The administration was started on the day of infection, at 0.2 ml/10 g each time by gavage once a day for 4 days, and the normal control and model control groups were gavaged with distilled water under the same conditions. The mice were weighed and dissected on Day 5, and lungs were weighed to calculate lung index and lung index inhibition. The results were statistically processed using t-test for comparison between groups.

[3] = system: Sendai strain of parainfluenza virus; format: in vivo
[4] = system: Influenza A (H1N1) virus FM1 strain; assay: Mouse pneumonia model infected with influenza A (H1N1) virus FM1 strain (lung index); format: in vivo, ICR mice
Description: ICR mice were taken and randomly divided into: normal control group, model control group, ribavirin control group, compound 4, compound F1, compound F2, and compound F3 according to their weight class, and each drug was given in two dosage groups (10 mice in each group). Except for the normal control group, mice were slightly anesthetized with ether and infected with 15 LD50 H1N1 influenza virus liquid FM1 strain by nasal drops (30 μl per animal). The administration was started on the day of infection at 0.2 ml/10 g by gavage each time once a day for 4 days, and the normal control and model control groups were gavaged with distilled water under the same conditions. The mice were weighed and dissected on Day 5, and the lung was weighed to calculate lung index and lung index inhibition. The results were statistically processed using t-test for comparison between groups.
as §1, §2

[5] = Acute toxicity test in mice (single gavage, 14-day observation); format: in vivo
Description: Seventy ICR mice, weighing 17-21 g, were randomly divided into 7 groups according to fasting body weight: a normal control group and 6 dose groups of 475, 633, 844, 1125, 1500 and 2000 mg of the test drug (compound 4)/kg, 10 mice in each group, 50/50 male and female. After fasting for about 15 h, each dosing group was administered once by gavage in a volume of 40 ml/kg, and the control group was gavaged with an equal volume of 0.5% sodium carboxymethylcellulose solution once/day, and the animals were observed continuously for 14 days after administration of the drug to observe the death of the animals.
Thirty ICR mice, weighing 17-21 g, were randomly divided into three groups according to their fasting body weight: a normal control group and 2000 mg and 4000 mg of test drug (Compound 12)/kg dose group, 10 mice in each group, 50/50 male and female. After fasting for about 15 h, each dosing group was given the drug once by gavage in a volume of 40 ml/kg, and the control group was given an equal volume of 0.5% sodium carboxymethylcellulose solution by gavage once/day, and the deaths of the animals were observed continuously for 14 days after the administration of the drug.

[6] = Table 12 (Example 25), 7.5 mg/kg/d gavage for 4 days
[7] = Table 12 (Example 25), 15 mg/kg/d gavage for 4 days
[8] = Table 11 (Example 24), 7.5 mg/kg/d gavage for 4 days
[9] = Table 11 (Example 24), 15 mg/kg/d gavage for 4 days
[10] = Table 13 (Example 25), 7.5 mg/kg/d gavage for 4 days
[11] = Table 13 (Example 25), 15 mg/kg/d gavage for 4 days
[12] = Human coronavirus 229E, in Mus musculus, po, 96 h, Table 10 (Example 23), 7.5 mg/kg/d gavage for 4 days, read-out: inhibition rate (%)
[13] = Table 10 (Example 23), 7.5 mg/kg/d gavage for 4 days
[14] = Table 3 (Example 14), 27.5 mg/kg gavage once a day for 4 days
[15] = Table 12 (Example 25), 27.5 mg/kg/d gavage for 4 days
[16] = Table 13 (Example 25), 27.5 mg/kg/d gavage for 4 days
[17] = Table 7 (Example 18), 82.5 mg/kg/d gavage for 4 days
[18] = Table 11 (Example 24), 82.5 mg/kg/d gavage for 4 days

CCN(CC)CCCC(C)Nc1ccnc2cc(Cl)ccc12 (stereo not drawn) [Chloroquine, chloroquine phosphate, reference compound]
inhibition rate % (human coronavirus OC43): 42.72%
lung index (human coronavirus OC43): 0.80 ± 0.05 g lung weight × 100/g body weight
inhibition in vivo at 90 mg/kg/day ([1]; Human coronavirus 229E, in Mus musculus, po, 96 h, read-out: inhibition rate (%), Table 4 (Example 15), 90 mg/kg/d gavage for 4 days): 31.3%
inhibition in vivo at 90 mg/kg/day ([1]; Human coronavirus 229E, in Mus musculus, po, 96 h, read-out: inhibition rate (%), Table 5 (Example 16), 90 mg/kg/d gavage for 4 days): 56.2%
inhibition in vivo at 90 mg/kg/day ([1]; Human coronavirus 229E, in Mus musculus, po, 96 h, read-out: inhibition rate (%), Table 10 (Example 23), 90 mg/kg/d gavage for 4 days): 52.9%
inhibition in vivo at 90 mg/kg/day ([1]; Human coronavirus 229E, in Mus musculus, po, 96 h, read-out: inhibition rate (%), Table 14 (Example 26), 90 mg/kg/d gavage for 4 days): 62.8%
lung index ([1]; Table 4 (Example 15), 90 mg/kg/d gavage for 4 days): 0.78 ± 0.04 g lung weight × 100/g body weight
lung index ([1]; Table 5 (Example 16), 90 mg/kg/d gavage for 4 days): 0.70 ± 0.04 g lung weight × 100/g body weight
lung index ([1]; Table 10 (Example 23), 90 mg/kg/d gavage for 4 days): 0.80 ± 0.02 g lung weight × 100/g body weight
lung index ([1]; Table 14 (Example 26), 90 mg/kg/d gavage for 4 days): 0.83 ± 0.05 g lung weight × 100/g body weight

COc1ccc(-c2coc3cc(OCCNC4CC4)ccc3c2=O)cc1 [Compound 2]
inhibition rate % [2, 6]: 99.05%
lung index [2, 6]: 0.70 ± 0.110 Lung weight * 100/body weight
inhibition rate % [2, 7]: 60.90%
lung index [2, 7]: 0.74 ± 0.091 Lung weight * 100/body weight
inhibition rate % [3, 8]: −18.32%
lung index [3, 8]: 0.86 ± 0.04 Lung weight * 100/body weight
inhibition rate % [3, 9]: 3.27%
lung index [3, 9]: 0.84 ± 0.07 Lung weight * 100/body weight
inhibition rate % [4, 10]: 26.60%
lung index [4, 10]: 0.77 ± 0.074 Lung weight * 100/body weight
inhibition rate % [4, 11]: 72.90%
lung index [4, 11]: 0.73 ± 0.060 Lung weight * 100/body weight

CN(CCOc1ccc2c(=O)c(-c3ccccc3)coc2c1)C1CC1 [Compound 9]
inhibition rate % [2, 6]: 58.71%
lung index [2, 6]: 0.74 ± 0.046 Lung weight * 100/body weight
inhibition rate % [2, 7]: 91.64%
lung index [2, 7]: 0.71 ± 0.060 Lung weight * 100/body weight
inhibition rate % [3, 8]: 40.51%
lung index [3, 8]: 0.79 ± 0.05 Lung weight * 100/body weight
inhibition rate % [3, 9]: 55.59%
lung index [3, 9]: 0.77 ± 0.05 Lung weight * 100/body weight
inhibition rate % [4, 10]: 79.57%
lung index [4, 10]: 0.72 ± 0.069 Lung weight * 100/body weight
inhibition rate % [4, 11]: 84.63%
lung index [4, 11]: 0.71 ± 0.052 Lung weight * 100/body weight
inhibition in vivo at 7.5 mg/kg/day [1, 12]: 46.5%
lung index [1, 13]: 0.81 ± 0.10 g lung weight × 100/g body weight

CC(=O)N(CCOc1ccc2c(=O)c(-c3ccccc3)coc2c1)C1CC1 [Compound 10]
inhibition rate % [3, 8]: 7.43%
lung index [3, 8]: 0.83 ± 0.06 Lung weight * 100/body weight
inhibition rate % [3, 9]: −16.30%
lung index [3, 9]: 0.86 ± 0.05 Lung weight * 100/body weight
inhibition in vivo at 7.5 mg/kg/day [1, 12]: 25.6%
lung index [1, 13]: 0.85 ± 0.06 g lung weight × 100/g body weight

CCC(=O)N(CCOc1ccc2c(=O)c(-c3ccccc3)coc2c1)C1CC1 [Compound 11]
inhibition rate % [3, 8]: −20.73%
lung index [3, 8]: 0.87 ± 0.04 Lung weight * 100/body weight
inhibition rate % [3, 9]: 6.19%
lung index [3, 9]: 0.83 ± 0.05 Lung weight * 100/body weight
inhibition in vivo at 7.5 mg/kg/day [1, 12]: 14.1%
lung index [1, 13]: 0.87 ± 0.08 g lung weight × 100/g body weight

CC(C)N(CCOc1ccc2c(=O)c(-c3ccccc3)coc2c1)C1CC1 [Compound 12]
inhibition rate % [2, 6]: 63.78%
lung index [2, 6]: 0.74 ± 0.091 Lung weight * 100/body weight
inhibition rate % [2, 7]: 76.54%
lung index [2, 7]: 0.72 ± 0.076 Lung weight * 100/body weight
animal deaths ([5]; 2000 and 4000 mg of the drug/kg single gavage, 14 days observation): No animals died
maximum concentration that could be administered by gavage, with no death of the animals ([5]; acute toxicity, mice): 4000 mg/kg
inhibition rate % [3, 8]: 57.49%
lung index [3, 8]: 0.77 ± 0.04 Lung weight * 100/body weight
inhibition rate % [3, 9]: 61.91%
lung index [3, 9]: 0.76 ± 0.03 Lung weight * 100/body weight
inhibition rate % [4, 10]: 70.82%
lung index [4, 10]: 0.73 ± 0.070 Lung weight * 100/body weight
inhibition rate % [4, 11]: 93.59%
lung index [4, 11]: 0.71 ± 0.042 Lung weight * 100/body weight
inhibition in vivo at 7.5 mg/kg/day ([1]; Human coronavirus 229E, in Mus musculus, po, 96 h, Table 14 (Example 26), 7.5 mg/kg/d gavage for 4 days, read-out: inhibition rate (%)): 39.8%
inhibition in vivo at 15 mg/kg/day ([1]; Human coronavirus 229E, in Mus musculus, po, 96 h, Table 14 (Example 26), 15 mg/kg/d gavage for 4 days, read-out: inhibition rate (%)): 68.4%
lung index ([1]; Table 14 (Example 26), 7.5 mg/kg/d gavage for 4 days): 0.86 ± 0.04 g lung weight × 100/g body weight
lung index ([1]; Table 14 (Example 26), 15 mg/kg/d gavage for 4 days): 0.82 ± 0.07 g lung weight × 100/g body weight

CCOC(=O)C1=C[C@@H](OC(CC)CC)[C@H](NC(C)=O)[C@@H](N)C1 [Oseltamivir, Oseltamivir phosphate, reference compound]
inhibition rate % [2, 14]: 58.89%
inhibition rate % [2, 15]: 88.97%
lung index [2, 15]: 0.71 ± 0.069 Lung weight * 100/body weight
inhibition in vivo at 27.5 mg/kg ([4]; Influenza A virus, H1N1, po, 96 h, Table 2 (Example 14), 27.5 mg/kg gavage once a day for 4 days, read-out: inhibition rate (%)): 62.1%
lung index ([4]; Table 2 (Example 14), 27.5 mg/kg gavage once a day for 4 days): 0.86 ± 0.21
inhibition rate % [4, 16]: 64.57%
lung index [4, 16]: 0.74 ± 0.065 Lung weight * 100/body weight

NC(=O)c1ncn([C@@H]2O[C@H](CO)[C@@H](O)[C@H]2O)n1 [Ribavirin, ribavirin, reference compound]
inhibition rate % [2, 14]: 58.89%
lung index [2, 14]: 0.84 ± 0.10
inhibition rate % [3, 17]: 42.06%
lung index [3, 17]: 0.70 ± 0.03 lung weight/100 g body weight
inhibition rate % [3, 18]: 57.66%
lung index [3, 18]: 0.77 ± 0.04 Lung weight * 100/body weight
inhibition in vivo at 82.5 mg/kg ([4]; Influenza A virus, H1N1, po, 96 h, Table 1 (Example 13), 82.5 mg/kg gavage once a day for 4 days, read-out: inhibition rate (%)): 49.6%
lung index ([4]; Table 1 (Example 13), 82.5 mg/kg gavage once a day for 4 days): 0.96 ± 0.16
